The values below come from patent publication US20160115136A1, “COMPOUNDS, COMPOSITIONS COMPRSING SAME, AND METHODS RELATED THERETO” (UNIVERSITY OF IOWA RESEARCH FOUNDATION, priority 2013, published 2016).

The target in series [1] is T1, glutamate racemase from H. pylori (Helicobacter pylori, UniProt P56068).
T1 sequence (P56068 1-255): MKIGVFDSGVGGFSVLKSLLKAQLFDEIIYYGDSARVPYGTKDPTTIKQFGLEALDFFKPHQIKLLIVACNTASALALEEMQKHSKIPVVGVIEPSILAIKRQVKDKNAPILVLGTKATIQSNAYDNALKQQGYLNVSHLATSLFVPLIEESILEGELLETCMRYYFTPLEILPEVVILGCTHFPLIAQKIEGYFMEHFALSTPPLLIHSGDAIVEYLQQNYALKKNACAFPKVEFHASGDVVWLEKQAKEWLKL
The format is biochemical.

A further series relates to S. aureus. In words: Cell wall lysis assay (modified CytoTox-Glo, luminescence).
The test system of the next series is S. aureus ATCC 12600. In words: Inhibition of bacterial growth (MIC50, absorbance at 600 nm, 24 h). The following applies: for growth inhibition: concentrations <3 mg mL^−1.
For another series, the system named is B. subtilis DB104. The series is described as above.
Series [2] relates to glutamate racemase isozyme 2 from Bacillus anthracis (RacE2). Nature of the series: biochemical. The format is biochemical. The following applies: FIG. 14, competitive inhibition model.
In the next series the test system is E. coli Acella. In words: Inhibition of bacterial growth (MIC50, absorbance at 600 nm, 24 h). The following applies: for growth inhibition: concentrations <3 mg mL^−1.
The subject of the next series is B. subtilis. Nature of the series: Cell wall lysis assay (modified CytoTox-Glo, luminescence).
The target in series [3] is T2, glutamate racemase (GR) from B. subtilis (Bacillus subtilis, UniProt P94556). The following applies: for Ki: read-out: Ki value.
T2 sequence (P94556 whole entry): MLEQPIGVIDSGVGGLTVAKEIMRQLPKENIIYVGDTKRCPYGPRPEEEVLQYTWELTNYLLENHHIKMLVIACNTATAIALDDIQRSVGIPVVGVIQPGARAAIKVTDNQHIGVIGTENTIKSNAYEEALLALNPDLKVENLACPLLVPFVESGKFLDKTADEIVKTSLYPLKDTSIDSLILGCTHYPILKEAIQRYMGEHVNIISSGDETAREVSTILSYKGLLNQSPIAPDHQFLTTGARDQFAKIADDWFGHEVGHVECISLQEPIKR
The target of series [4] is T3, glutamate racemase isozyme 2 from Bacillus anthracis (RacE2) (Bacillus anthracis, UniProt A0A6L8PKK6). Type of series: biochemical. The following applies: 25° C., pH 8.0.
T3 sequence (A0A6L8PKK6 1-269): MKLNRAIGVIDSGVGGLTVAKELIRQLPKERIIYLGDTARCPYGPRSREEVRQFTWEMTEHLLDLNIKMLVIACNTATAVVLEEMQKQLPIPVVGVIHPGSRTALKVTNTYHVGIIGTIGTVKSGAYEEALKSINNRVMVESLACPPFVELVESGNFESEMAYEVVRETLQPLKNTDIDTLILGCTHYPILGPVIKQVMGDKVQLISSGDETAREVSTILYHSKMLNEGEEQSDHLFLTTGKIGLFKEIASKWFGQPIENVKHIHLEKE
Series [5] addresses GR from B. anthracis isozyme 1 (RacE1) (Bacillus anthracis, UniProt A0A6L8PVU3). In words: biochemical.
The target of the next series is GR from F. tularensis (Francisella tularensis, UniProt Q5NFN6). In words: biochemical.
Chain of GR from F. tularensis (Q5NFN6 1-265): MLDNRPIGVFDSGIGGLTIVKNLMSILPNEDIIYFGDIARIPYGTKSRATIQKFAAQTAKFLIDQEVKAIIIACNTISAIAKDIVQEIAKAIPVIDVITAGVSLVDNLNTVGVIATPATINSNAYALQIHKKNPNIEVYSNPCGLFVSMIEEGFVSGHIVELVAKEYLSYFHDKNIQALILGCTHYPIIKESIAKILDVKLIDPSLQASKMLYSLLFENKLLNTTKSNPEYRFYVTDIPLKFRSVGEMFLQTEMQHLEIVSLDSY
Series [6] deals with T3, glutamate racemase isozyme 2 from Bacillus anthracis (RacE2). In words: biochemical. The format is biochemical.
Series [7] has as its target T2, glutamate racemase (GR) from B. subtilis. Nature of the series: biochemical.
Setting [8] is: Ki converted into binding energy divided by number of non-hydrogen atoms.
Setting [9] is: from log(Ki) and calculated logP (MarvinSketch).
Setting [10] is: Staphylococcus aureus, ATCC12600.

Converted amounts (≈) assume the structure as drawn. “And” between values parts separate entries of the source, which are not always exact repeats. Identical values can stand only once. Like-named read-outs stand apart in the source and are kept apart here.

Chain of GR from B. anthracis isozyme 1 (RacE1) (A0A6L8PVU3 1-276): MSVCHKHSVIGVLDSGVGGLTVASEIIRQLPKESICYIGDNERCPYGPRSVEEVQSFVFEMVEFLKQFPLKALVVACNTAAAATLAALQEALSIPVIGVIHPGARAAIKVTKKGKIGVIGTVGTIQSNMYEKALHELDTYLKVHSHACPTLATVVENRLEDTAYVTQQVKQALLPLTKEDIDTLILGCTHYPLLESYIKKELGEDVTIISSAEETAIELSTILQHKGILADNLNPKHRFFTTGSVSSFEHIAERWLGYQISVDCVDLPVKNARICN

What is called IC50 is the concentration at which inhibition is half-maximal. The low end stands for greater potency in that assay, the high end for weaker potency in that assay. A word on the MIC50: it is an inhibitory concentration at the 50% level, which refers to growth in some studies and to a panel of isolates in others. Read a high MIC50 as weaker potency. What is called EC50 is the concentration that produces a half-maximal response. Broadly, the Ki is the equilibrium dissociation constant of an inhibitor or competing ligand from its target. On to “7-fluoro-2-sulfo-1H-benzo[d]imidazole-5-carboxylic acid [Compound 4] [listing 1 of 2 here]”, for which the 50% inhibitory concentration (IC50) in series [1] (best-fit value, Table 5) is 102 µM; in [1] (dose-response inhibition model, FIG. 16) it was roughly 100 µM. The “Hill Slope (best-fit value)” value in series [1] (dose-response fit) is given as −6.498. Besides, the “LogIC50 (best-fit value)” value in [1] (log of compound concentration in mM) is on record as −0.9935. In addition, the increase in luminescence with S. aureus (S. aureus, millimolar inhibitor concentration range) was roughly 40%; with B. subtilis (low-millimolar range), 400%. Also, the MIC50 is 1000 ± 250 µg/mL with S. aureus ATCC 12600 (S. aureus); 260 ± 110 µg/mL against B. subtilis DB104 (B. subtilis); 1,788 μM and 460 μg/mL in the series on B. subtilis DB104 (B. subtilis, FIG. 15); 1600 ± 200 µg/mL against E. coli Acella (E. coli). In addition, the “MIC50 value for growth inhibition” value with B. subtilis DB104 (B. subtilis) was determined as 260 µg/mL. In addition, the “MIC50 value for bacterial growth inhibition” value with B. subtilis DB104 (B. subtilis, FIG. 17) was 2000 µM. For the same molecule, in [2], the “potency against B. anthracis RacE2 relative to B. subtilis GR” value was “equal potency”. Also, in the series with B. subtilis, the EC50 for lysis came to 520 µg/mL. In the series with B. subtilis (read-out: EC50 value of cell lysis, FIG. 17, within the same range as the MIC50), the EC50 is roughly 2000 µM. Also, the “LE (ligand efficiency)” value in series [3] (setting [8]) was 0.45 kcal mol^−1 atom^−1. Besides, the inhibitory constant (Ki) in [3] turned out to be 2.5 µM.
Molecule “7-fluoro-2-sulfo-1H-benzo[d]imidazole-5-carboxylic acid [Compound 4] [listing 2 of 2 here]” gave an inhibition constant (Ki) in series [4] of 5.4 ± 2.5 µM.
As to `O=S(=O)(O)c1nc2ccccc2[nH]1` [Compound 2, 1H-benzimidazole-2-sulfonic acid], the IC50 came to 120 ± 5 µM in series [5], 110 ± 12 µM on GR from F. tularensis, 40 ± 5 µM in [6] and 250 ± 20 µM in series [7]. The molecule further came in with an MIC50 with B. subtilis DB104 (Bacillus subtilis, DB104) of 720 ± 60 µg/mL (≈ 3.63 mM). Besides, in [3], the “LE (ligand efficiency)” value came out at 0.53 kcal mol^−1 atom^−1. In [3], the “LiPE (lipophilic efficiency)” value came out at 5.3. Moreover, the inhibition constant Ki in series [3] (GR from B. subtilis) was 9 µM.
Take `Cc1ccc2[nH]c(S(=O)(=O)O)nc2c1` [Compound 15]: the MIC50 with B. subtilis DB104 (Bacillus subtilis, DB104) was greater than 3000 µg/mL. In [7], this molecule came in with a Ki of 21 ± 5 µM. For the same molecule, in [3] (setting [8]), the “LE (ligand efficiency)” value was determined as 0.46 kcal mol^−1 atom^−1. Moreover, in series [3] (setting [9]), the “LiPE (lipophilic efficiency)” value is given as 4.4.
For `CCCCNS(=O)(=O)c1ccc2[nH]c(S(=O)(=O)O)nc2c1` [Compound 18, 5-(n-butylsulfamoyl)-1H-benzo[d]imidazole-2-sulfonic acid], the growth inhibition result in the series with S. aureus ATCC 12600 (S. aureus) and in the series with E. coli Acella (E. coli) was “no significant growth inhibition” throughout. Also, the MIC50 against S. aureus ATCC 12600 (setting [10]) was greater than 3000 µg/mL; in the series on B. subtilis DB104 (Bacillus subtilis, DB104) it was 360 ± 20 µg/mL (≈ 1.08 mM); in the series with E. coli Acella (Escherichia coli) it was greater than 3000 µg/mL. Besides, in [7], affinity was put at a Ki of 12 ± 3.6 µM. Further, the “LE (ligand efficiency)” value in series [3] (setting [8]) was 0.30 kcal mol^−1 atom^−1. In [3] (setting [9]), the “LiPE (lipophilic efficiency)” value is 5.0.
As to `O=C(c1ccccc1)c1ccc2[nH]c(S(=O)(=O)O)nc2c1` [Compound 24], the MIC50 against B. subtilis DB104 (Bacillus subtilis, DB104) was 140 ± 20 µg/mL (≈ 0.463 mM). Moreover, in [7], the Ki stood at 830 ± 75 µM. In addition, in series [3], the “loss in binding affinity versus parent compound” value is listed as roughly 100 fold. In addition, the “LE (ligand efficiency)” value in series [3] (setting [8]) stood at 0.20 kcal mol^−1 atom^−1. Besides, the “LiPE (lipophilic efficiency)” value in series [3] (setting [9]) is recorded as 1.9.
In turn, `O=S(=O)(O)c1nc2ccc(Cl)cc2[nH]1` [Compound 26] came in with an MIC50 against B. subtilis DB104 (Bacillus subtilis, DB104) greater than 3000 µg/mL. The molecule further yielded a Ki in series [7] of 13 ± 2.4 µM. For the same molecule, the “LE (ligand efficiency)” value in series [3] (setting [8]) was found to be 0.48 kcal mol^−1 atom^−1. The “LiPE (lipophilic efficiency)” value in series [3] (setting [9]) is given as 4.5.
Consider `O=S(=O)(O)c1nc2cc(S(=O)(=O)N3CCOCC3)ccc2[nH]1` [Compound 29, 5-(morpholinosulfonyl)-1H-benzo[d]imidazole-2-sulfonic acid], for which the growth inhibition entry with S. aureus ATCC 12600 (S. aureus) and with E. coli Acella (E. coli) was “no significant growth inhibition” each time. Also, the MIC50 is greater than 3000 µg/mL in the series on S. aureus ATCC 12600 (setting [10]); 320 ± 10 µg/mL (≈ 0.921 mM) with B. subtilis DB104 (Bacillus subtilis, DB104); greater than 3000 µg/mL in the series with E. coli Acella (Escherichia coli). The affinity in series [7], expressed as Ki, was 6.4 µM. For the same molecule, in [3] (setting [8]), the “LE (ligand efficiency)” value is 0.34 kcal mol^−1 atom^−1. The “LiPE (lipophilic efficiency)” value in [3] (setting [9]) is 6.6.
With `CC1(C)S[C@@H]2[C@H](NC(=O)[C@H](N)c3ccccc3)C(=O)N2[C@H]1C(=O)O` [ampicillin, reference compound], in the series with S. aureus (S. aureus exposed 24 h, control antibiotics, FIG. 23A), the “luminescence response (cell lysis)” value was “dose-dependent increase in luminescence”.
